For CCOC(=O)C1(C(=O)OCC)CCC2(c3cc(OC)c(OC)cc3CCN2C(=O)CCN(C)C)C(C2c3cc(OC)c(OC)cc3CCN2C(C)=O)C1 (stereo not given), the melting point was 154 to 156 °C.
CNC(=O)C1=CC(CF)(CF)Oc2ccccc21 gave a melting point of 138 to 139 °C.
In the case of COC(=O)c1ccccc1-c1ccc(COc2cc(C)nc3cccnc23)cc1, the melting point is reported as 132 to 134 °C.
Work on COc1ccc2oc(N(C=O)[C@@H](Cc3ccccn3)c3ncc(-c4ccc(-n5ccnc5)cc4)n3C)cc2c1 yielded a melting point of 151 to 153 °C.
In the case of CC(C)(C)OC(=O)N1CCN(c2ccccc2O)CC1, the melting point is reported as 115 to 117 °C.
O=C(Nc1ccc(CN2C(=O)[C@H]3CCC[C@H]3N(C(=O)CN3C(=O)c4ccccc4C3=O)c3ccccc32)cc1)c1cccc(F)c1 (relative stereo) showed a melting point of 256 to 259 °C.
In the case of CN(C)c1nc(=O)c2cccnc2n1Cc1ccc(F)cc1, the melting point is reported as 167 to 170 °C.
For COc1ccc2[nH]c3cc(C(=O)OCc4ccccc4)c4c(c3c2c1)C(=O)NC4=O, the melting point was 245 °C.
Compound Cc1cc(Cl)ccc1N1C(=O)c2ccc(Cl)cc2C1=O has a melting point of 193 to 195 °C.
For COC(=O)CN(C)CC(=O)Nc1cccc2c1C(=O)c1c(NC(=O)CN(C)CC(=O)OC)cccc1C2=O, the melting point was 129 to 130 °C.
In the case of CC(C)(C)OC(=O)N1C[C@@H](Br)C[C@@H]1C(=O)OCc1ccccc1, the melting point is reported as 87 to 88 °C.
Compound ON1CCC2(CC1)OC(c1ccccc1)c1ccccc12 (stereo not given) has a melting point of 184 to 187 °C.
With CCCCc1[nH]c2ccc(OC)cc2c1C(=O)c1ccc(OC)cc1 the melting point was 170 °C.
Compound Cc1cc(NC(=O)NC(=O)c2ccccc2N2CCOCC2)ccc1Oc1ncc(Br)cn1 has a melting point of 67 to 70 °C.
Work on COc1cccc2c(NCc3ccccc3C)nc(Cl)nc12 yielded a melting point of 279 to 281 °C.
With Cc1ccc(C)c(C2CC(=O)C=C(N)C2)c1 (stereo not given) the melting point was 169 to 170 °C.
Cn1cc(CCl)c(-c2ccc(Cl)cc2C(=O)c2ccccc2F)n1 showed a melting point of 153 to 155 °C.
For O=c1ccc2cnc(Nc3ccccc3)nc2n1C1CCCC1, the melting point was 188 to 192 °C.
With C=CC1(F)CN(C2CCCC2)c2nc(Nc3ccc(C(=O)NC4CCCNC4)cc3OC)ncc2N(C)C1=O (stereo not given) the melting point was 169 to 172 °C.
Compound CC(CF)(CF)C1=NC(c2ccc(C(C)(C)C)cc2)CO1 (stereo not given) has a melting point of 62 to 63 °C.
COc1ncc(C2Nc3ccccc3C(=O)N2c2cccc(C(F)(F)F)c2)cc1Br (stereo not given) gave a melting point of 192 to 193 °C.
CC(C)(C)c1csc(-c2cc3cc(CCc4ccccc4C(=O)O)ccc3o2)n1 showed a melting point of 147 to 148 °C.
O=C(O)c1ccc(CNC(=O)C2Cc3ccccc3N2S(=O)(=O)c2ccc(-c3cccc(C(F)(F)F)c3)cc2)c(Cl)c1 (stereo not given) showed a melting point of 110 to 120 °C.
Work on Cc1nn(-c2cc(O)c(Cl)cc2F)c(C)c1[N+](=O)[O-] yielded a melting point of 157 to 158 °C.
CC(C)(C)c1cc(C2N(c3ccc(Cl)cc3)CCN2c2ccc(Cl)cc2)cc(C(C)(C)C)c1O showed a melting point of 220 to 222 °C.
Compound CCCCCCCCC=CCCCCCCCCN1CC(C(=O)OC)N(S(=O)(=O)c2ccc(-c3ccc(Br)cc3)cc2)CC1=O (stereo not given) has a melting point of 108 °C.
CCCCc1c[nH]cn1 gave a melting point of 42 to 45 °C.
Cc1cc(O)c2ccccc2c1OCc1ccccc1 gave a melting point of 159 to 161 °C.
Work on CC(C)c1ccc(O)c(C(C)C)c1NC(=O)CN1CCN(CCSc2nc3cccc(C(F)(F)F)c3o2)CC1 yielded a melting point of 82 to 84 °C.
With S=C1N=c2ccc(OCCN3CCC(Cc4ccc(Cl)cc4)CC3)cc2=N1 the melting point was 291 to 293 °C.
Compound Cc1nc(C)n(-c2cc([C@@H]3C[C@H]3c3nc4ccccc4n3C)nc(C(F)(F)F)n2)n1 (relative stereo) has a melting point of 151 to 153 °C.
For COc1cc(CCNc2ncnc3scnc23)ccc1Oc1c(F)cnc(C(F)(F)F)c1F, the melting point was 108 to 112 °C.
Work on Cc1c(NC(=O)CCCC(=O)c2ccc(F)cc2)ccc2cc(CN3CCCC3)cnc12 yielded a melting point of 170 to 171 °C.
COc1ccc(-c2sc3c(c2C)c(=O)c(C#N)cn3Cc2ccccc2F)cc1 showed a melting point of 215 to 216 °C.
Work on CCCc1c(OCCC(C)Br)ccc(C(C)=O)c1O (stereo not given) yielded a melting point of 53 to 55 °C.

— a melting point compilation (Tetko et al.; mined from patent text by program, amines drawn as free bases though some values may be those of a salt)
